Values of other authors, collected in patent US20090148509A1, “ENCAPSULATION AND DEAGGREGATION OF POLYENE ANTIBIOTICS USING POLY(ETHYLENE GLYCOL)-PHOSPHOLIPID MICELLES” (WISCONSIN ALUMNI RESEARCH FOUNDATION, priority 2002, published 2009).

Tests used:
[1] = surfactant:AmB

| Compound | critical aggregation concentration of AmB in water | molar ratio required to efficiently deaggregate AmB [1] |
| --- | --- | --- |
| C[C@@H]1[C@H](O)[C@@H](C)/C=C/C=C/C=C/C=C/C=C/C=C/C=C/[C@H](O[C@@H]2O[C@H](C)[C@@H](O)[C@H](N)[C@@H]2O)C[C@@H]2O[C@](O)(C[C@@H](O)C[C@@H](O)[C@H](O)CC[C@@H](O)C[C@@H](O)CC(=O)O[C@H]1C)C[C@H](O)[C@H]2C(=O)O [AmB, Amphotericin B] | about 1.0 μg/ml | – |
| sodium deoxycholate | – | greater than 40 |
